Data from US10561646B2, “EGFR inhibitor and pharmaceutically acceptable salt and polymorph thereof, and use thereof” (SHANGHAI HAIYAN PHARMACEUTICAL TECHNOLOGY CO., LTD., priority 2015, dated 2020).
“Also recorded” adds a separate entry of the source. Read-outs that look alike come from different tables or passages of the source.

Legend:
[1] = room temperature, crude solubility
[2] = Hygroscopicity / DVS test; format: physicochemical; details: for moisture absorbed: humidity increased to 80% RH at 25° C.
Description: Dynamic Vapor Sorption (DVS) curve: collected on DVS Intrinsic SMS (Surface Measurement Systems). The relative humidity at 25° C. is corrected with the deliquescent points of LiCl, Mg (NO3)2 and KCl.
The rate of weight loss increases when the humidity is reduced to 20% RH at 25° C.
The DVS test was performed on crystal form II sample at a constant temperature of 25° C.
In order to assess the stability of anhydrous crystal form I and hydrate crystal form II under different humidity conditions, DVS assay was performed on samples of anhydrous crystal form I and hydrate crystal form II at constant 25° C.
When the humidity reaches 20% RH, a turning point appears in the isothermal map of DVS, which is caused by the transition from anhydrous crystal form I to hydrate form II according to the XRPD comparison of the samples before and after the DVS assay shown in FIG. 32. The actual moisture absorbed is less than the moisture content of crystal form II sample due to the slow solid phase transition rate.

[3] = Suspension competition test between crystal forms; format: physicochemical; details: for stability relationship crystal form II / IV: acetone/H2O (aw 0.6), about 5 minutes
Description: Firstly, the suspension of maleate crystal form C-1 in acetone was prepared at two temperature respectively, and filtered after balancing for about one hour.
In order to further confirm the stability relationship between anhydrous crystal form I and hydrate crystal form II under different water activity conditions at room temperature, the mixture of crystal form I and crystal form II was suspended and stirred in acetone/H2O solvent system with different water activities (aw—0.2/0.4/0.6/0.8).
In order to study the stability relationship between different hydrate crystal form II and IV at room temperature to 50° C., a suspension competition test was set up in aqueous system at room temperature and 50° C. respectively. Firstly, the free base suspension in acetone/H2O (aw—0.6) was prepared at room temperature and 50° C. respectively. After balancing at the corresponding temperature for about 1 hour, the suspension was filtered to obtain the near saturated solution at the corresponding temperature. An equal quantity of crystal form II and IV samples (about 6 mg each) was added to 0.8 ml of saturated solution to form a suspension which was magnetically stirred (−800 rpm) at room temperature and 50° C. for about 5 minutes, and sampled for XRPD test.

H1975 cells [4] = test: Cytostatic activity by MTT method, H1975; format: cell-based
A431 cells [5] = test: Cytostatic activity by MTT method, A431; format: cell-based
NIH3T3 cells = test: Cytotoxicity against NIH3T3 cells, MTT assay; format: cell-based; details: Mus musculus, 72 h incubation
H1975 cells [6] = test: Activities of EGFR T790M inhibitor on cells by ELISA, H1975; format: cell-based; details: Homo sapiens, NCI-H1975
A431 cells [7] = test: Activities on cells by ELISA, A431 (EGF stimulated); format: cell-based; details: Homo sapiens, A-431
[8] = Solid phase stability experiment (XRPD, HPLC, TGA after one week); format: physicochemical; details: for Purity (%): HPLC; for Weight loss (%): TGA; for crystal transition: XRPD
Description: An appropriate amount of samples were weighed and stored at 25° C./60% RH and 40° C./75% RH (unsealed), respectively. Another set of samples were sealed and kept as a control at 5° C. at the same time. All samples were characterized by XRPD, HPLC and TGA one week later, and the crystal form, purity and weight loss were tested.

[9] = In vivo test of rats, pharmacokinetics after oral gavage; design: species or system SD rats; details: rat, oral gavage 5 mg/kg; for Area under the curve AUC / Half-life T1/2: plasma
[10] = Dynamic solubility experiment in water, SGF, FaSSIF, FeSSIF; format: physicochemical; details: thermodynamic from solid, room temperature
EGFR WT kinase = target: T1, EGFR WT kinase (Homo sapiens, UniProt P00533); test: Wild type EGFR kinase inhibition test (z-lyte); format: biochemical
T1 construct: purchased Invitrogen PV3872
T1 sequence (P00533 25-1210): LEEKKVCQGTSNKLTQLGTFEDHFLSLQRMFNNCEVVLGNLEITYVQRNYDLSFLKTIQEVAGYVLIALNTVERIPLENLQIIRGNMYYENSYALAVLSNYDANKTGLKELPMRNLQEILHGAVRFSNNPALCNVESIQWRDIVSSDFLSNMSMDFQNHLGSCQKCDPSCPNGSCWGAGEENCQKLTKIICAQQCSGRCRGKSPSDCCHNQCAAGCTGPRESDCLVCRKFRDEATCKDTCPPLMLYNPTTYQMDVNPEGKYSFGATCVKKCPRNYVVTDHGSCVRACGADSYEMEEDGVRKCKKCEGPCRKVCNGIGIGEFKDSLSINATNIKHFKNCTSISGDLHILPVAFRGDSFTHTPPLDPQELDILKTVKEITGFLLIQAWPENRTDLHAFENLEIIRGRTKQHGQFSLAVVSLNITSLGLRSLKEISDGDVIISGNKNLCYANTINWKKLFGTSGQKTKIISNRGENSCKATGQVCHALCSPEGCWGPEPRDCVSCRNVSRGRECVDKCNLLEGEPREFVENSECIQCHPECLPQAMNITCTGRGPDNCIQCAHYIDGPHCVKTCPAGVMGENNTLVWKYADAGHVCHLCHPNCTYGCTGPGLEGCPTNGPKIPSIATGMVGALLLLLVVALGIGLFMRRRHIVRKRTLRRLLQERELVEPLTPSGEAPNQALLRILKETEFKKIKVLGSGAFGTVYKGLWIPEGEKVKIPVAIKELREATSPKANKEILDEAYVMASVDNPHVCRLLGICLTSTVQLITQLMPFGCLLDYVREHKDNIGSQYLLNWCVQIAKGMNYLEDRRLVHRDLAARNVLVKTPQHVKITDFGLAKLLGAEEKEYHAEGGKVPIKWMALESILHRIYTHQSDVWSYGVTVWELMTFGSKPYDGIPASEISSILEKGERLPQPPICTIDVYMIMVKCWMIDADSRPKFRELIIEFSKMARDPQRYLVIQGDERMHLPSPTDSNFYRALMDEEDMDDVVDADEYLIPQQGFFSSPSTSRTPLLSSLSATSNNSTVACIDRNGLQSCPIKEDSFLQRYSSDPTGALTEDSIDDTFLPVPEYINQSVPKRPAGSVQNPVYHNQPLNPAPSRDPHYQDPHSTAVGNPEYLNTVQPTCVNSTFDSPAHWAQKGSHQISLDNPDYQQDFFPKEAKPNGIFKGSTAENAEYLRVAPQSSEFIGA

[11] = Storage of crystal form C-1 at 80° C. for 24 hours (XRPD, HPLC); format: physicochemical

| Compound | Purity (%) ([8]; 5° C. (control), sealed) | Weight loss (%) ([8]; 5° C. (control), sealed) | Weight loss (%) ([8]; 25° C./60% RH, unsealed) | crystal transition ([8]; 25° C./60% RH, unsealed) | Weight loss (%) ([8]; 40° C./75% RH, unsealed) | crystal transition ([8]; 40° C./75% RH, unsealed) | Maximum plasma concentration Cmax [9] [ng/mL] | Area under the curve AUC [9] [ng·h/mL] | Half-life T1/2 [9] [h] | further results |
| --- | --- | --- | --- | --- | --- | --- | --- | --- | --- | --- |
| maleate | – | – | – | – | – | – | – | – | – | Solubility S ([1]; 1,4-dioxane): S < 1.0 mg/ml; Solubility S ([1]; 2-methyltetrahydrofuran): S < 0.9 mg/ml; Solubility S ([1]; N,N-dimethylacetamide): S > 20.0 mg/ml; Solubility S ([1]; N-methylpyrrolidone): S > 23.0 mg/ml; Solubility S ([1]; acetone): S < 1.1 mg/ml; Solubility S ([1]; dimethyl sulfoxide): S > 22.0 mg/ml; Solubility S ([1]; ethanol): S < 1.1 mg/ml; Solubility S ([1]; ethyl acetate): S < 0.9 mg/ml; Solubility S ([1]; isopropanol): S < 0.9 mg/ml; Solubility S ([1]; isopropyl acetate): S < 1.0 mg/ml; Solubility S ([1]; methyl isobutyl ketone): S < 0.9 mg/ml; Solubility S ([1]; methyl tert-butyl ether): S < 1.0 mg/ml; Solubility S ([1]; n-hexane): S < 1.0 mg/ml; Solubility S ([1]; tetrahydrofuran): S < 1.2 mg/ml; Solubility S ([1]; toluene): S < 1.1 mg/ml |
| C=CC(=O)Nc1cc(Nc2ncc(F)c(-c3cnn(C)c3)n2)c(OC)cc1N1CCC(N(C)C)CC1 [crystal form II] | – | – | – | – | – | – | – | – | – | weight loss in DVS ([2]; 25° C., humidity above 10% RH): essentially no weight loss; also recorded: almost no weight loss; water absorbed ([2]; DVS, 25° C., at 95% RH, after dewatering below 10% RH): 6.9%; stability relationship crystal form II / IV ([3]; room temperature and 50° C.): more stable than hydrate crystal form IV; stability relationship crystal form I / II ([3]; acetone/H2O, aw 0.2/0.4/0.6/0.8, room temperature, three days): more stable |
| C=CC(=O)Nc1cc(Nc2nccc(-c3cn(C)c4ccccc34)n2)c(OC)cc1N(C)CCN(C)C [comparative compound 1] | – | – | – | – | – | – | – | – | – | IC50 (H1975 cells [4]; Homo sapiens, NCI-H1975, 72 h incubation): 13 nM; IC50 (A431 cells [5]; Homo sapiens, A-431, 72 h incubation): […]; IC50 (NIH3T3 cells): 3550 nM; IC50 (H1975 cells [6]): 29 nM; IC50 (A431 cells [7]): […] |
| C=CC(=O)Nc1cc(Nc2ncc(F)c(-c3cnn(C)c3)n2)c(OC)cc1N1CCC(N(C)C)CC1 [crystal form IV] | – | – | – | – | – | – | – | – | – | stability relationship crystal form II / IV ([3]; room temperature and 50° C.): quickly converted to hydrate crystal form II |
| C=CC(=O)Nc1cc(Nc2ncc(F)c(-c3cnn(C)c3)n2)c(OC)cc1N1CCC(N(C)C)CC1.Cl [crystal form A] | 99.45 | 3.0 | 4.3 | no | 3.4 | no | 93.3 | 1379 | 7.44 | – |
| C=CC(=O)Nc1cc(Nc2ncc(F)c(-c3cnn(C)c3)n2)c(OC)cc1N1CCC(N(C)C)CC1.O=C(O)CCCCC(=O)O [crystal form E] | 99.30 | 0.1 | 0.5 | no | 0.4 | no | 117 | 1660 | 7.46 | crystal form before and after the DVS test (XRPD) ([2]; 25° C.): did not change; hygroscopicity ([2]; DVS, 25° C.): slightly hygroscopic; moisture absorbed ([2]; DVS): 0.5% |
| CN(C)C/C=C/C(=O)Nc1cc2c(Nc3ccc(F)c(Cl)c3)ncnc2cc1O[C@H]1CCOC1 [BIBW2992] | – | – | – | – | – | – | – | – | – | IC50 (NIH3T3 cells): 2750 nM |
| C=CC(=O)Nc1cc(Nc2ncc(F)c(-c3cnn(C)c3)n2)c(OC)cc1N1CCC(N(C)C)CC1 [the free base of compound of formula X, N-(2-(4-(dimethylamino)piperidin-1-yl)-5-(5-fluoro-4-(1-methyl-1H-pyrazol-4-yl)pyrimidin-2-ylamino)-4-methoxyphenyl)acrylamide] | 99.23 | 5.1 | 5.3 | no | 6.2 | no | – | – | – | solubility at 1 h ([10]; fasting state simulated intestinal fluid (FaSSIF), FaSSIF, after 1 hour of solid dispersion): 4200 µg/mL; solubility at 1 h ([10]; feeding state simulated intestinal fluid (FeSSIF), FeSSIF, after 1 hour of solid dispersion): ≥ 10500 µg/mL; solubility at 1 h ([10]; simulated gastric fluid (SGF), simulated gastric fluid, SGF, after 1 hour of solid dispersion): ≥ 8500 µg/mL; solubility at 1 h ([10]; fourth solvent (head is an image; water), after 1 hour): 10 µg/mL; inhibitory activities against EGFR wild-type enzyme, in words (EGFR WT kinase): weak inhibitory activities; inhibitory activities against EGFR mutant cells (H1975 cells), in words (H1975 cells [4]): strong inhibitory activities; inhibitory activities against EGFR wild-type cells (A431 cells), in words (A431 cells [5]): weak inhibitory activities |
| C=CC(=O)Nc1cc(Nc2ncc(F)c(-c3cnn(C)c3)n2)c(OC)cc1N1CCC(N(C)C)CC1 [crystal form I] | – | – | – | – | – | – | – | – | – | humidity at turning point of DVS isotherm (transition from anhydrous crystal form I to hydrate form II) ([2]; 25° C.): 20 % RH |
| C=CC(=O)Nc1cc(Nc2ncc(F)c(-c3cnn(C)c3)n2)c(OC)cc1N1CCC(N(C)C)CC1.O=C(O)/C=C\C(=O)O [crystal form C-1] | 99.39 | 0.1 | 1.2 | no | 1.3 | no | 86.3 | 1233 | 7.92 | crystal form before and after the DVS test (XRPD) ([2]; 25° C.): did not change; hygroscopicity ([2]; DVS, 25° C.): slightly hygroscopic; moisture absorbed ([2]; DVS): 0.3%; stability relationship crystal form C-1 / C-2 ([3]; acetone, room temperature and 50° C., stirring 5 minutes): higher thermodynamic stability than crystal form C-2; crystal form and HPLC purity before and after the test [11]: did not change |
| C=CC(=O)Nc1cc(Nc2ncc(F)c(-c3cnn(C)c3)n2)c(OC)cc1N1CCC(N(C)C)CC1.O=P(O)(O)O [crystal form B] | 99.56 | 4.1 | 4.6 | no | 4.5 | no | 93.2 | 1265 | 7.04 | crystal form before and after the DVS test (XRPD) ([2]; 25° C.): does not change |
| C=CC(=O)Nc1cc(Nc2ncc(F)c(-c3cnn(C)c3)n2)c(OC)cc1N1CCC(N(C)C)CC1.O=C(O)C[C@H](O)C(=O)O [crystal form D] | 99.37 | 1.6 | 1.3 | no | 1.2 | no | 84.4 | 1202 | 6.63 | – |
